Test results as given in patent publication US10669242B2 (priority 2016, dated 2020).

Experiments:
[1] = molecular target: T1, C. difficile full-length toxin TcdA (Clostridioides difficile, UniProt P16154); assay: cell-based
T1 construct: C. difficile full-length toxins (TcdA or TcdB); purchased Enzo Life Sciences BML-G140-0050

[2] = molecular target: T2, recombinant glucosyltransferase domain of C. difficile Toxin B/TcdB (Clostridioides difficile, UniProt P18177); assay: biochemical
T2 construct: 6-His (C); purchased R&D Systems 6246-GT

[3] = tested on: C. difficile toxin (TcdA and TcdB, ~1:1); assay: Murine C. difficile toxin model (intrarectal toxin); assay type: in vivo, C57BL/6 mice; details: murine C. difficile toxin model, PO, 50 mg/kg body weight
Description: In the following studies, we established a murine C. difficile toxin model with modifications from a published murine model (Hirota, Iablokov et al. 2012). Details of the murine C. difficile toxin model are described in the “Experimental Protocols” (below). C. difficile toxins were isolated from a culture of the C. difficile strain VPI 10463. C. difficile toxins consisted of TcdA and TcdB (˜1:1 ratio of TcdA:TcdB). Respective TcdA and TcdB concentrations were determined by enzyme-linked immunosorbant assay (ELISA). In our mouse model, C. difficile toxins were administered intrarectally to evaluate their pathological effects.
We administered C. difficile toxin (12.5 μg/mouse) via intrarectal instillation into female C57BL/6 mice. Four (4) animals were used in each group. Four (4) hours after the toxin administration, the mice were euthanized. The colons were excised from the animals and washed with phosphate buffered saline (PBS). The colon lengths were measured. Excised colon tissues were stored at −70° C. for chemical analysis of interleukin-1β(IL-1β) and myeloperosidase (MPO) in tissues, which are the hallmarks of colon inflammation. Excised colon tissues were also stored at room temperature in 10% neutral buffered formalin for histopathological analysis.
Using the murine C. difficile toxin model (Example 61), we evaluated the efficacy of Example 6a in reducing the C. difficile toxin activity. In this study, the isolated toxin (12.5 μg) was diluted in 50 μl of PBS and mixed with a 50 μl suspension of Example 6a (10 mg/mL) in 1% carboxymethyl cellulose and 0.5% Tween 80 to achieve a fixed dose of […] of Example 6a (0.5 mg in mice weighing ˜20 g) and C. difficile toxin (12.5 μg). Three (3) animals were used in each group.
In this study, we evaluated the efficacy of Example 6a via different routes of administration (i.e., oral (PO) and intraperitoneal (IP) administrations) in the same murine C. difficile toxin model (Example 61). In both PO and IP dosages, Example 6a was prepared as 5 mg/mL solutions in 20% PEG-400, 0.4% carboxymethyl cellulose and 0.2% Tween 80. Example 6a was administered at a final dose of 50 mg/kg body weight. Three (3) mice were used in each group (i.e., vehicle (control), PO and IP).
Using the murine C. difficile toxin model (Example 63), we further tested the efficacy of four (4) additional compounds (i.e., Example 6a, Example 5ae, Example 4cl, and Example 5al) via PO administration. All of the compounds were dosed orally at 50 mg/kg body weight. In three separate studies a total of three (3) to fourteen (14) mice were used in each group.
We evaluated the efficacy of additional compounds in reducing C. difficile toxicity. Using the PO administration (Example 63), we further tested 30 compounds (Table 34). All of the compounds were dosed orally at 50 mg/kg body weight. Three (3) to fourteen (14) animals were used for each compound. % inhibition was determined by the following formula: […]
An overnight culture of C. difficile strain VPI 10463 (American Type Culture Collection) was grown at 37° C. in Brain-Heart Infusion (BHI) broth using the GasPak EZ Anaerobe Pouch System (Becton Dickinson). 2 mL of the culture was added to 28 mL of phosphate buffered saline (PBS) in a gamma-irradiated, 10,000 molecular weight cut-off, 30-70 ml Slide-A-Lyzer G2 dialysis cassette (Pierce). This cassette was submerged in 1 L of BHI broth in a 2 L beaker and incubated under anaerobic conditions for 5 days at 37° C. The culture was then transferred to a 50 mL conical tube and the cassette was washed with 10 mL of PBS. The combined culture and wash were centrifuged at 2,000 g for 20 minutes to pellet the bacteria and the supernatant was filtered through a 0.2 μm syringe filter. The filtrate was then applied to a 20 mL 150 K molecular weight cut-off concentration column (Pierce) and centrifuged at 2,000 g for 15 minutes. Concentrated supernatant was stored at 4° C. […]

[4] = molecular target: T3, C. difficile full-length toxin TcdB (Clostridioides difficile, UniProt P18177); assay: cell-based
T3 construct: C. difficile full-length toxins (TcdA or TcdB); purchased EMD Millipore 616377

T1 sequence (P16154 whole entry, looked up): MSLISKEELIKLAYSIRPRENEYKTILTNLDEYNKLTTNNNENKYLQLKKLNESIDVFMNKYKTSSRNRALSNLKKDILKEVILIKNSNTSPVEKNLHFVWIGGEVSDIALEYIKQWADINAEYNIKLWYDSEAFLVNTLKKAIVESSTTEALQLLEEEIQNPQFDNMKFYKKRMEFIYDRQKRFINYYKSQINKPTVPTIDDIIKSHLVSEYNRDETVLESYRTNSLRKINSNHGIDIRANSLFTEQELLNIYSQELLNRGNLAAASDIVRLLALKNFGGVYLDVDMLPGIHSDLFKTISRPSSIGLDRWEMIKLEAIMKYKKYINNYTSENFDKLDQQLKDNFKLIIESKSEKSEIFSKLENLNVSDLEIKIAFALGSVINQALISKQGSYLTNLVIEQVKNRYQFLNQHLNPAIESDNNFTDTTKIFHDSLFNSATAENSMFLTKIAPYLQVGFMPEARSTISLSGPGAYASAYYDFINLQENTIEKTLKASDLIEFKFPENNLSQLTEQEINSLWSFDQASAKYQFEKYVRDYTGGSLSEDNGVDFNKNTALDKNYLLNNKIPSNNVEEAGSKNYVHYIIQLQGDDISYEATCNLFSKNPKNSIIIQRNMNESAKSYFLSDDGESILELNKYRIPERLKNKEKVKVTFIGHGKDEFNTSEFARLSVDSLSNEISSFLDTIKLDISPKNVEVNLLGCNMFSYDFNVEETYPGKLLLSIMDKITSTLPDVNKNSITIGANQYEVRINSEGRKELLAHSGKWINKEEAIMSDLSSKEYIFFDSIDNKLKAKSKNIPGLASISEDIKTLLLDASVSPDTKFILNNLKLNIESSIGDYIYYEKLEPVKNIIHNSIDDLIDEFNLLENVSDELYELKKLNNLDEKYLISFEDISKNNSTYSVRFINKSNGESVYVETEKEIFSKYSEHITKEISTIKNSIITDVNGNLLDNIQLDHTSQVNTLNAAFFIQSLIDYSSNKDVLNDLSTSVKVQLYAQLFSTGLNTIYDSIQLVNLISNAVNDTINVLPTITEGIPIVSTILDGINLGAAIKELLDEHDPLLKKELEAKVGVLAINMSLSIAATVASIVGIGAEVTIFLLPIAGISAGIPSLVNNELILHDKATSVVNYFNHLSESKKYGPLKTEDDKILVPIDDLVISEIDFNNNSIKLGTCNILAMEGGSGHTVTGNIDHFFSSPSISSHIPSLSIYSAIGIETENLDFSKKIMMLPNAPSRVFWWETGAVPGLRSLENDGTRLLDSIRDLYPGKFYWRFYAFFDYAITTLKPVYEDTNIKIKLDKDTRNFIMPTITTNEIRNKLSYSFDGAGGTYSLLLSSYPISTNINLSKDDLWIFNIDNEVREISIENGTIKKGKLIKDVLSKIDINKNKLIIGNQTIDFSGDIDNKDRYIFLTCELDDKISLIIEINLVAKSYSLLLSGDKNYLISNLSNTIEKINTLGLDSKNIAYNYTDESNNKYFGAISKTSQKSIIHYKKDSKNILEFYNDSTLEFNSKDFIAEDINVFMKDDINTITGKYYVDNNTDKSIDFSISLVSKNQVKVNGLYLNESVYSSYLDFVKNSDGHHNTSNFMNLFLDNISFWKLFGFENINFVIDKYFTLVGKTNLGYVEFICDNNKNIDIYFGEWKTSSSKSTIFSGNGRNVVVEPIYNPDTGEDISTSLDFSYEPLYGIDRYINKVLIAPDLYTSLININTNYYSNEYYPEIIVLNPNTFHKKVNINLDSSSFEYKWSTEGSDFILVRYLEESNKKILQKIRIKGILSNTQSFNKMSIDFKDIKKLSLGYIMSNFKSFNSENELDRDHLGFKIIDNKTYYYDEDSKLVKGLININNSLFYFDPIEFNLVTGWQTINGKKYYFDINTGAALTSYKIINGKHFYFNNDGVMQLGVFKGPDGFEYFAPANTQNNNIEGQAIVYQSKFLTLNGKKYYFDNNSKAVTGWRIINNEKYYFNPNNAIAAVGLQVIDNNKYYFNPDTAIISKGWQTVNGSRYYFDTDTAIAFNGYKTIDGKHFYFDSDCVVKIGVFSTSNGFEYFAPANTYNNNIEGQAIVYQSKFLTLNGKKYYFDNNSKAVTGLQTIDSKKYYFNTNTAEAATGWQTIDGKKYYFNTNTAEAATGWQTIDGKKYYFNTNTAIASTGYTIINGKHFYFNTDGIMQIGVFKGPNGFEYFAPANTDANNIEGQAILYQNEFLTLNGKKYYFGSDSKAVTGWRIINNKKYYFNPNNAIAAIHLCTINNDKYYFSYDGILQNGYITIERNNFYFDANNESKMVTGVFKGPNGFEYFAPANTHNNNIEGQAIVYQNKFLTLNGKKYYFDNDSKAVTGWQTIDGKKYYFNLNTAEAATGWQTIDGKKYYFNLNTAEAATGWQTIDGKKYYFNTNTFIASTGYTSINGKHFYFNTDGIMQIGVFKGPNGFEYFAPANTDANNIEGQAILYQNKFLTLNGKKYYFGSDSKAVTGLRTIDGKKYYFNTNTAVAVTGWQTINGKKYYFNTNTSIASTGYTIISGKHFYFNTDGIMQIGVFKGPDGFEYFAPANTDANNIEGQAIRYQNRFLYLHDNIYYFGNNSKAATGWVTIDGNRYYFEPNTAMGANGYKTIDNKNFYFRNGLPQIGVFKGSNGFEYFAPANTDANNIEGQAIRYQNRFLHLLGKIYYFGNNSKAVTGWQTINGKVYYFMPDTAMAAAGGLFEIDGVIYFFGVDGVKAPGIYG
T2 sequence (P18177 1-543): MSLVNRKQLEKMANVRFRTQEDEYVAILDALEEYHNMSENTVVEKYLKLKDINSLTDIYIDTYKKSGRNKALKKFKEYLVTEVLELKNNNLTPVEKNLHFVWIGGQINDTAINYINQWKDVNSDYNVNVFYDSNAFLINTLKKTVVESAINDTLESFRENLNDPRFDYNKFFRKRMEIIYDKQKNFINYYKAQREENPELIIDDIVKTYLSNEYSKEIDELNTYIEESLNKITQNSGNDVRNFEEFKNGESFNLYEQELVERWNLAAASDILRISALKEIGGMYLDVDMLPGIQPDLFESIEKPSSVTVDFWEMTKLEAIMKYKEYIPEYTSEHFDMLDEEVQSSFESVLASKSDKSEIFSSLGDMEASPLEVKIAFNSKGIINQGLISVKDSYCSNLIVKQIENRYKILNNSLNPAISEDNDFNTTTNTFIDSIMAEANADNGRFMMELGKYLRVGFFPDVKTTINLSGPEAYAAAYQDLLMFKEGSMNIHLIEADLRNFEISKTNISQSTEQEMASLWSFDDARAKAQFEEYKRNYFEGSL

Structure (SMILES)	IC50 [1] [nM]	IC50 [2] [nM]	IL-1β (% Inhibition) [3] [%]	MPO (% Inhibition) [3] [%]	IC50 [4] [nM]
O=C(Nc1ccc(F)cn1)c1ccc(CN2C(=O)c3ccc(Cl)cc3NC(=O)[C@H]2Cc2ccccn2)cc1 [Example 4a, (R)-4-((8-Chloro-2,5-dioxo-3-(pyridin-2-ylmethyl)-2,3-dihydro-1H-benzo[e][1,4]diazepin-4(5H)-yl)methyl)-N-(5-fluoropyridin-2-yl)benzamide]	1000 to 10000	< 100	30	51	< 100
Cc1cnc2c(c1)CCN2C(=O)c1ccc(CN2C(=O)c3ccc(Cl)cc3NC(=O)[C@H]2Cc2ccccn2)cc1Cl [Example 4ad, (R)-8-Chloro-4-(3-chloro-4-(5-methyl-2,3-dihydro-1H-pyrrolo[2,3-b]pyridine-1-carbonyl)benzyl)-3-(pyridin-2-ylmethyl)-3,4-dihydro-1H-benzo[e][1,4]diazepine-2,5-dione]	100 to 999	< 100	80	100	< 100
COc1cc(CN2C(=O)c3ccc(Cl)cc3NC(=O)[C@H]2Cc2ccccn2)ccc1C(=O)Nc1ccc(C(F)(F)F)cn1 [Example 4au, (R)-4-((8-Chloro-2,5-dioxo-3-(pyridin-2-ylmethyl)-2,3-dihydro-1H-benzo[e][1,4]diazepin-4(5H)-yl)methyl)-2-methoxy-N-(5-(trifluoromethyl)pyridin-2-yl)benzamide]	> 10000	< 100	40	0	100 to 999
COc1ccc(NC(=O)c2ccc(CN3C(=O)c4ccc(Cl)cc4NC(=O)[C@H]3Cc3ccccn3)cc2Cl)nc1 [Example 4by, (R)-2-Chloro-4-((8-chloro-2,5-dioxo-3-(pyridin-2-ylmethyl)-2,3-dihydro-1H-benzo[e][1,4]diazepin-4(5H)-yl)methyl)-N-(5-methoxypyridin-2-yl)benzamide]	100 to 999	< 100	46	1	< 100
Cc1ccc(NC(=O)c2ccc(CN3C(=O)c4ccc(Cl)cc4NC(=O)[C@H]3Cc3ccccn3)cc2Cl)nc1 [Example 4cb, (R)-2-Chloro-4-((8-chloro-2,5-dioxo-3-(pyridin-2-ylmethyl)-2,3-dihydro-1H-benzo[e][1,4]diazepin-4(5H)-yl)methyl)-N-(5-methylpyridin-2-yl)benzamide]	100 to 999	< 100	74	99	< 100
O=C(c1ccc(CN2C(=O)c3ccc(Cl)cc3NC(=O)[C@H]2Cc2ccccn2)cc1)c1c[nH]c2cccnc12 [Example 32a, 4-(4-(1H-Pyrrolo[3,2-b]pyridine-3-carbonyl)benzyl)-8-chloro-3-(pyridin-2-ylmethyl)-3,4-dihydro-1H-benzo[e][1,4]diazepine-2,5-dione]		< 100	72	76	
O=C(c1ccc(CN2C(=O)c3ccc(Cl)cc3NC(=O)[C@H]2Cc2ccccn2)cc1)c1cccn2ccnc12 [Example 34a, (R)-8-Chloro-4-(4-(imidazo[1,2-α]pyridine-8-carbonyl)benzyl)-3-(pyridin-2-ylmethyl)-3,4-dihydro-1H-benzo[e][1,4]diazepine-2,5-dione]	> 10000	< 100			100 to 999
O=C1Nc2cc(Cl)ccc2C(=O)N(Cc2ccc(C(O)c3ccccn3)cc2)[C@@H]1Cc1ccccn1 (stereo partly drawn) [Example 51a, (3R)-8-Chloro-4-(4-(hydroxy(pyridin-2-yl)methyl)benzyl)-3-(pyridin-2-ylmethyl)-3,4-dihydro-1H-benzo[e][1,4]diazepine-2,5-dione]		1000 to 10000			
Cn1cccc(C(=O)c2ccc(CN3C(=O)c4ccc(Cl)cc4NC(=O)[C@H]3Cc3ccccn3)cc2)c1=O [Example 53a]		100 to 999			
C[C@@H]1C(=O)Nc2cc(Cl)ccc2C(=O)N1Cc1ccc(C(=O)Nc2ccc(C(F)(F)F)cn2)c(-c2ccc3c(c2)OCO3)c1 [Example 54a]		1000 to 10000			
